{
  "source": "paper PMC5104457",
  "about": "“ATP-Competitive MLKL Binders Have No Functional Impact on Necroptosis” (PLoS ONE, 2016)",
  "key": {"[1]": {"system": "FADD (-/-) Jurkat cells", "assay": "Viability experiment in the absence of TNF", "type": "cell-based", "details": "FADD deficient Jurkat cells, Fig 3A", "protocol": "Necroptosis assays were performed at Charles River Laboratories (United Kingdom) and at Biogen. […] On the day of the experiment, cells were counted using Nexcelom Bioscience Cell Meter Vision and pelleted by centrifugation. Cell pellets were resuspended in fresh medium at 500,000 cells per mL and transferred to assay-ready compound plates prepared in 384-well white TC plates (Greiner #781080) at 20μl cells per well. Cells and compound were incubated at room temperature for 30 minutes followed by +/- stimulation with 15ng/ml TNF-α (Cell signalling Technologies #8902LF) overnight at 37°C. In the morning, plates were equilibrated to room temperature for 30 minutes and 25μl of CellTiter-Glow (CellTiter-Glo 2.0 Assay, Promega # G9243) diluted 1:4 in PBS was added to each well and allowed to incubate for 10 minutes at room temperature. Luminescence was read on an Envision plate reader (Perkin Elmer). Percent viability values are calculated from separate dose response experiments identical to the percent rescue experiment except that no TNF is added to the cells. This assay is intended to identify compounds that not only don’t rescue, but are toxic themselves. 100% Viability is defined as the intensity value of the “no TNF” wells, cell treated with neither compound nor TNF. […]"}, "[2]": {"target": "T1, N-terminal domain HSP90α (Homo sapiens, UniProt P07900)", "T1 construct": "the N-terminal domain HSP90α; made in house", "assay": "Differential scanning fluorimetry (thermal shift), Hsp90α N-terminal domain", "type": "binding", "details": "10 μM compound, Hsp90α catalytic domain", "protocol": "To measure the thermal stabilization of the proteins upon compound binding we employed differential scanning fluorimetry (DSF). The kinase domain of RIPK1 and the N-terminal domain HSP90α were expressed and purified as previously described. The pseudokinase MLKL-1, RIPK1 and Hsp90 were melted at 1μM final concentrations in 25mM HEPES pH 8.0, 250mM NaCl and 2.5mM DTT. Compounds were added to a final concentration of 10 μ M with a final DMSO concentration of 5%. The complexes were incubated on ice for 30 minutes. Protein Thermal Shift dye (Life Technologies) was added to 1X. The fluorescence intensities were measured using a Quantstudio real-time PCR system (Life Technologies) with excitation at 470 nm and emission at 586 nm. The samples, measured in triplicate, were heated from 25 to 85°C with a heating rate of […]."}, "[3]": {"target": "T2, full length MLKL (Homo sapiens, UniProt Q8NB16)", "T2 construct": "purchased DiscoverX (KINOMEscan service); host or cells: HEK-293", "T2 sequence (Q8NB16 1-471)": "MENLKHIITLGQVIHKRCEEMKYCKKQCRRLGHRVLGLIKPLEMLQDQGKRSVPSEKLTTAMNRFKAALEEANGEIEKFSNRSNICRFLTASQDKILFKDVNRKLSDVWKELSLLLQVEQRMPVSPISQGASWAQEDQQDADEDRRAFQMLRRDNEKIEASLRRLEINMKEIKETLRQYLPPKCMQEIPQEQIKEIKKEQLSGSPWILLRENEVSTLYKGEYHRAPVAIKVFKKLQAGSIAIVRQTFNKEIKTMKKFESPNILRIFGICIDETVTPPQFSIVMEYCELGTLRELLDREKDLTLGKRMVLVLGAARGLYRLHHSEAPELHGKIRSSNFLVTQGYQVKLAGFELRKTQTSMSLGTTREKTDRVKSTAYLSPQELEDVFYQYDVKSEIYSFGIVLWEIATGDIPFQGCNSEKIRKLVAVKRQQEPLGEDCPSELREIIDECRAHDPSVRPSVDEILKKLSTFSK", "assay": "KINOMEscan ATP-competitive probe displacement (competition binding) assay, MLKL", "details": "average of duplicates", "protocol": "Compound binding constants (KDs) were determined at DiscoverX using their KINOMEscan assay platform. […] Briefly, full length MLKL was expressed in HEK-293 cells as a fusion with an NFκB DNA binding domain and subsequently tagged with a qPCR detection amplicon via interaction with NFκB. […] Twenty microliters of binding reactions were carried out in 384-well polypropylene plates for 1 hour at room temperature. Beads were subsequently washed and resuspended in elution buffer for 30 minutes at room temperature with shaking. The concentration of MLKL in the eluates was measured by qPCR and compound binding constants were calculated using a standard dose-response curve.\n(§1) A similar approach was used to measure binding affinities for RIPK1 and RIPK3 kinase domains."}, "[4]": {"target": "T3, RIPK3 kinase domain (Homo sapiens, UniProt Q9Y572)", "T3 construct": "purchased DiscoverX", "T3 sequence (Q9Y572 21-287 limits assumed)": "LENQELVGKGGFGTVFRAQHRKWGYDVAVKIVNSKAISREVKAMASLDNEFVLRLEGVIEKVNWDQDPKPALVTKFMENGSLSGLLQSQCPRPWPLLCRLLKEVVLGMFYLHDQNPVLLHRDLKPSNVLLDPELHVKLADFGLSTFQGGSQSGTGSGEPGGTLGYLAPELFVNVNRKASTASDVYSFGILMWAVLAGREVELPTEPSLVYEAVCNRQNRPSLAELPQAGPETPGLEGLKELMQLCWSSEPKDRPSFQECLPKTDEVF", "assay": "ATP-competitive probe displacement assay, RIPK3", "type": "binding", "protocol": "Compound binding constants (KDs) were determined at DiscoverX using their KINOMEscan assay platform. This competition binding assay was previously described in Karaman et al. (2008)[18]. Briefly, full length MLKL was expressed in HEK-293 cells as a fusion with an NFκB DNA binding domain and subsequently tagged with a qPCR detection amplicon via interaction with NFκB. […] Twenty microliters of binding reactions were carried out in 384-well polypropylene plates for 1 hour at room temperature. Beads were subsequently washed and resuspended in elution buffer for 30 minutes at room temperature with shaking. The concentration of MLKL in the eluates was measured by qPCR and compound binding constants were calculated using a standard dose-response curve.\nas §1"}},
  "data": [
    {"compound": "CN(c1ccc(NC(=O)Nc2ccc(OC(F)(F)F)cc2)cc1)c1ccnc(Nc2cccc(S(N)(=O)=O)c2)n1", "note": "[cpd 1, reference compound]", "values": [
      {"measurement": "compound concentration at which cell viability became an issue", "setting": "[1]", "value": "> 2", "unit": "µM"},
      {"measurement": "ΔTm at 10 µM", "setting": "[2]", "value": 1.5, "unit": "°C"}
    ]},
    {"compound": "Nc1nccnc1C(=O)O[C@@H](C(=O)Nc1ccc(F)cc1)c1ccccc1", "note": "[cpd 4, 3-Amino-pyrazine-2-carboxylic acid (R)-(4-fluorophenylcarbamoyl)-phenyl-methyl ester]", "values": [
      {"measurement": "Kd", "setting": "[3]", "value": 0.23, "unit": "µM"},
      {"measurement": "displacement of the ATP probe from / binding to RIPK3 (in words)", "setting": "[4]", "value": "without binding RIPK1 or RIPK3"},
      {"measurement": "Kd", "setting": "[4]; average of duplicates", "value": "> 30", "unit": "µM"}
    ]}
  ]
}
